System: E. faecalis OCC 604
Assay: growth on nutrient agar, mixed culture with S. aureus (Example 7)
Assay type: cell-based, Enterococcus faecalis
Conditions: E. faecalis in mixed culture with S. aureus
Excerpt: Example 6 was repeated, this time using a mixed culture of S. aureus OCC 102 and E. faecalis OCC 604, in the presence of AEP or alaphosphin. The empty columns represent growth of S. aureus, the shaded columns represent growth of E. faecalis. […] Thus alaphosphin could be used, when incorporated at an appropriate concentration in a medium, to inhibit growth of organisms such as Enterococci in samples whilst allowing Staphylococci to grow and be detected.

## C[C@H](N)C(=O)N[C@@H](C)P(=O)(O)O [alaphosphin, L-alanyl-L-1-aminoethylphosphonic acid]
  concentration causing complete inhibition: ≥ 2 mM

Source: US20130189764A1, “SELECTIVE GROWTH MEDIA” (Oxide Limited, priority 2000, published 2013)
